# Data published in patent publication US20160312179A1 (GLAXOSMITHKLINE INTELLECHTUAL PROPERTY (NO.2) LIMITED, priority 2013, published 2016).
# Entries after “also recorded” stand apart in the source; their conditions may differ.
# Columns and labels:
# Assay type in all cases: cell-based, Chinese hamster
# [1] = system: DG44 CHO; experiment: Dose response study of TCA intermediates in fed-batch shake flasks: viable cell concentration / viability; details: for effect on cell growth / viable cell concentration after addition: dose response, all concentrations tested, compared to control culture
# Description: (§1) Several TCA cycle intermediates were selected for a dose response experiment based on commercial availability, either the acid or its sodium salt were purchased from Sigma Aldrich to prepare stock solution feeds to be used in the study.
# (§2) FIG. 1 summarizes the TCA cycle components tested and their location in the pathway. Table 1 summarizes the operation condition of shake flasks in the study as well as feed schedules for the dose response study.
# (§3) Control shake flasks were set up every time an arm of the study started. Those control shake flasks were fed-batch cultures without addition of any TCA intermediate. All conditions tested were executed in duplicate shake flasks.
# (§4) Shake flask cultures were sampled every other day to determine Total Cell Concentration (TCC), Viable Cell Concentration (VCC), cell viability, metabolite (glucose, lactate, glutamine, glutamate, and ammonia) concentration, and osmolality. The master sample was divided into cell-based assays (TCC, viability assays) and cell-free assays (metabolite concentration, osmolality). Back-up samples (cell-free supernatants) for future reference were produced by centrifuging a portion of the master sample and aliquoting 1.8 mL in Nunc cryovials which were subsequently stored at −70° C. Titer was determined on samples filtered through a 0.22 μm-filter.
# (§5) TCC, VCC and viability were determined using an automated cell counter based on the trypan blue exclusion method (ViCell XR, Beckman Coulter). Samples were pre-treated with protease prior to cell counting (TripLE, Life Technologies, USA) using equal volumes of protease stock solution and culture. Incubation to allow dissociation was carried out for 20-25 minutes at 37° C. under gentle shaking Metabolites were measured using Nova Bioprofile (Nova Bioprofile 400); which operates on enzyme-based electrochemical reactions. Osmolality measurement was based on the freezing-point depression method (Advanced Instruments, Model N/A). Filtered cell-free samples were sent to the Bioanalytical Development group for antibody accumulation and binding activity determination (Biacore).
# [2] = system: DG44 CHO; experiment: Dose response study in shake flasks: ammonia (NH4+) accumulation and production; details: for effect on ammonia (NH4+) accumulation: dose response, intermediate used alone, compared to control culture
# Description: as §1, with “study. Selected compounds were pyruvic acid, citric acid, α-ketoglutaric acid, fumaric acid, malic acid (or sodium salts), and oxaloacetic acid (no sodium salt available).” for “study.”
# as §2, with “Oxaloacetic acid and malic acid were added to the culture to a final concentration of 5 mM, 10 mM and 15 mM. […] FIG.” for “FIG.”
# as §3, §4, §5
# [3] = system: DG44 CHO; experiment: DOE interaction study in shake flasks: ammonia (NH4+) accumulation and production; details: for effect on ammonia (NH4+) generation / accumulation: single intermediate at selected concentration
# Description: The experiment to test interactions of all the selected components was carried out in two blocks. Each one of the blocks was designed to contain center points and control shake flasks (batch cultures, no addition of any component). […] All conditions were run in duplicates. Shake flask cultures were sampled every other day to determine Total Cell Concentration (TCC), Viable Cell Concentration (VCC), cell viability, metabolite (glucose, lactate, glutamine, glutamate, and ammonia) concentration, and osmolality. The master sample was divided into cell-based assays (TCC, viability assays) and cell-free assays (metabolite concentration, osmolality). Back-up samples (cell-free supernatants) for future reference were produced by centrifuging a portion of the master sample and aliquoting 1.8 mL in Nunc cryovials which were subsequently stored at −70° C. Titer was determined on samples filtered through a 0.22 μm-filter. TCC, VCC and viability were determined using an automated cell counter based on the trypan blue exclusion method (ViCell XR, Beckman Coulter). Samples were pre-treated with protease prior to cell counting (TripLE, Life Technologies, USA) using equal volumes of protease stock solution and culture. Incubation to allow dissociation was carried out for 20-25 minutes at 37° C. under gentle shaking Metabolites were measured using Nova Bioprofile (Nova Bioprofile 400); which operates on enzyme-based electrochemical reactions. Osmolality measurement was based on the freezing-point depression method (Advanced Instruments, Model N/A). Filtered cell-free samples were sent to the Bioanalytical Development group for antibody accumulation and binding activity determination (Biacore).
# [4] = system: DG44 CHO; experiment: Dose response study in shake flasks: cell-specific productivity
# Description: as §1, with “study. Selected compounds were pyruvic acid, citric acid, α-ketoglutaric acid, fumaric acid, malic acid (or sodium salts), and oxaloacetic acid (no sodium salt available).” for “study.”
# as §2, with “Oxaloacetic acid and malic acid were added to the culture to a final concentration of 5 mM, 10 mM and 15 mM. […] FIG.” for “FIG.”
# as §3
# as §4, with “Back-up samples (cell-free supernatants) for future reference were produced by centrifuging a portion of the master sample and aliquoting 1.8 mL in Nunc cryovials which were subsequently stored at −70° C.” left out
# (§6) TCC, VCC and viability were determined using an automated cell counter based on the trypan blue exclusion method (ViCell XR, Beckman Coulter). […] Incubation to allow dissociation was carried out for 20-25 minutes at 37° C. under gentle shaking Metabolites were measured using Nova Bioprofile (Nova Bioprofile 400); which operates on enzyme-based electrochemical reactions. […]
# Integral of Viable Cells was calculated using VCC data and applying the trapezoid rule following the formula,
# Specific Productivity was calculated using the last titer data point divided by last calculated IVC value.
# [5] = system: DG44 CHO; experiment: Dose response study in shake flasks: lactate accumulation; details: 45 mM added to the culture
# Description: as §1, with “study. Selected compounds were pyruvic acid, citric acid, α-ketoglutaric acid, fumaric acid, malic acid (or sodium salts), and oxaloacetic acid (no sodium salt available).” for “study.”
# as §2, with “Oxaloacetic acid and malic acid were added to the culture to a final concentration of 5 mM, 10 mM and 15 mM. […] FIG.” for “FIG.”, “study. […]” for “study.”
# Shake flask cultures were sampled every other day to determine Total Cell Concentration (TCC), Viable Cell Concentration (VCC), cell viability, metabolite (glucose, lactate, glutamine, glutamate, and ammonia) concentration, and osmolality. […] Titer was determined on samples filtered through a 0.22 μm-filter.
# as §6
# [6] = system: DG44 CHO; experiment: DOE interaction study in shake flasks: cell-specific productivity; details: 20 mM, alone
# Description: The experiment to test interactions of all the selected components was carried out in two blocks. Each one of the blocks was designed to contain center points and control shake flasks (batch cultures, no addition of any component). […] All conditions were run in duplicates. Shake flask cultures were sampled every other day to determine Total Cell Concentration (TCC), Viable Cell Concentration (VCC), cell viability, metabolite (glucose, lactate, glutamine, glutamate, and ammonia) concentration, and osmolality. The master sample was divided into cell-based assays (TCC, viability assays) and cell-free assays (metabolite concentration, osmolality). […] Titer was determined on samples filtered through a 0.22 μm-filter. TCC, VCC and viability were determined using an automated cell counter based on the trypan blue exclusion method (ViCell XR, Beckman Coulter). […] Incubation to allow dissociation was carried out for 20-25 minutes at 37° C. under gentle shaking Metabolites were measured using Nova Bioprofile (Nova Bioprofile 400); which operates on enzyme-based electrochemical reactions. […] Integral of Viable Cells was calculated using VCC data and applying the trapezoid rule following the formula, Specific Productivity was calculated using the last titer data point divided by last calculated IVC value.
structure (smiles),measurement,setting,value
O=C(O)CC(O)(CC(=O)O)C(=O)O [citric acid],effect on cell growth / viable cell concentration after addition,[1],deleterious effects on culture
O=C(O)/C=C/C(=O)O [fumaric acid],effect on cell growth / viable cell concentration after addition,[1],reduced cell growth
same,doses needed to stabilize ammonia production (and accumulation),[2]; after Day 10 of culture,30 mM and 45 mM
same,effect on ammonia (NH4+) accumulation,[2],only partial effect
same,effect on ammonia (NH4+) generation / accumulation,[3],slows down
O=C(O)CC(O)C(=O)O (stereo not shown) [malic acid],decline in viability compared to control shake flasks,[1]; 5 mM,no decline in viability
same,decline in viability,[1]; 30 mM,fastest decline in viability
same,concentrations toxic to cells,[1]; dose response experiment,higher than 5 mM
same,cell viability of the culture,[1]; high concentration (15 mM and 30 mM),induced loss of cell viability
same,effect on NH4+ accumulation or production,[2]; 5 mM,not a clear effect
same,effect on ammonia (NH4+) generation / accumulation,[3],suppress ammonia generation for a few days
same,effect on ammonia (NH4+) generation / accumulation,[3]; listed as malate,partially reduced
O=C(O)CC(=O)C(=O)O [oxaloacetic acid],effect on cell growth / viable cell concentration after addition,[1],did not have any deleterious effect on cell growth
same,cell-specific production rate and NH4+ accumulation,[2]; 10 mM and 15 mM,reduce
same,concentrations in the culture that control ammonia and maintain cell-specific productivity,[2]; dose response conclusion,5 to 15 mM
same,effect on ammonia (NH4+) accumulation,[2],reduction in the ammonia accumulation levels
same,effect on final cell-specific productivity,"[4]; dose response, compared to control",sustained cell-specific productivity values
same,effect on ammonia (NH4+) generation / accumulation,[3],partially reduced
CC(=O)C(=O)O [pyruvic acid],lactate accumulation,[5],around 3 g/L
same,"ammonia accumulated, compared to control shake flasks",[2]; 15 mM,slightly higher level than that found in control shake flasks
same,effect on the reduction of ammonia,[2]; 15 mM,minor effect on the reduction of ammonia
same,ammonia accumulated to,[2]; 30 mM,8 mM
same,ammonia consumption effect lasted to culture day,[2]; 30 mM,8 days
same,ammonia consumption induced up to culture day,[2]; 45 mM added on Day 5,10 days
same,final ammonia concentration,[2]; 45 mM added on Day 5,7 mM
same,effect on ammonia (NH4+) accumulation,[2],"dependent on the dose, but the effect lasts only for a few days"
same,cell-specific productivity,"[4]; 45 mM, control averaged 31 pg/cell/day",~24 pg/cell/day
same,effect on ammonia (NH4+) generation / accumulation,[3],suppress ammonia generation for a few days
same,effect on ammonia (NH4+) generation / accumulation,[3]; listed as pyruvate,partially reduced
O=C(O)CCC(=O)C(=O)O [α-ketoglutaric acid],effect on cell growth / viable cell concentration after addition,[1],cell division seems to stop
same,most effective concentration to reduce production of NH4+,"[2]; 15, 30, 45 mM tested",45 mM
same,cell-specific NH4+ production rate,[2]; all concentrations tested,reduced
same,effect on ammonia (NH4+) accumulation,[2]; listed as α-KG,reduced; also recorded: most effective
same,reduction of the cell-specific productivity compared to the control,[4]; used alone (FIGS. 21 and 22),10-20%
same,effect on ammonia generation,"[3]; 20 mM, alone",control ammonia generation
same,effect on ammonia (NH4+) generation / accumulation,[3],consumed
same,cell-specific productivity,[6],~30 pg/cell/day
